# Columns and labels:
# [1] = Lactone ring stability in formulated solution by mass spectrometry; format: physicochemical; conditions: formulated solution on shelf for 30 days at room temperature
# Experimental: Mass spectrometry (MS) parameters are used as follows. Bruker Esquire, ion trap; Infusion Flow Rate, 5 μl/min; Ion Polarity, Positive; Ion Source Type, ESI; Dry Temp, 300 deg C.; Nebulizer, 8.00 psi; Dry Gas, 7.00 Umin; HV Capillary, 4000 V; HV End Plate, −500 V; Scan Begin, 100.00 m/z; Average, 30; Max Acc Time, 400 us; and ICC Target, 50000. MS scan is in both negative ion mode and positive ion mode.
# [2] = system: DU145 prostate cancer cells; assay: Cell growth inhibition, cell counting after 72 h; format: cell-based, human
# Excerpt: Each dot is the mean±SD derived from 3 independent assays.
# Irinotecan and topotecan are the only two analogs derived from direct modification of camptothecin (CPT) that are approved by the FDA for cancer treatment in clinical practice. […] In this regard, we obtain one DU145 parental prostate cancer cell line and two DU145-derived sub-lines with Top1 mutations (DU145-RC0.1, DU145-RC1).
# [3] = system: HCT116-C8 cells; assay: cells; format: cell-based, human
# Experimental: (§1) Cancer cell viability and growth are determined by MTT assay. […] MTT is used as a colorimetric substrate for measuring cell viability and growth. When cell growth is inhibited, there is an alteration of cellular redox activity, and thus rendering cells unable to reduce the MTT dye. Cells are seeded in 96 well plates overnight and then treated with or without a compound/drug in the presence or absence of an protein molecule inhibitor (e.g. ABCG2 inhibitor ko143) for 48-72 hours, MTT is added to a final concentration 0.5 mg/ml. Cells are continuously incubated in a 5% CO2 incubator at 37° C. for 4 h with MTT and then lysed with a cell lysis buffer (20% SDS, 50% N,N-dimethylformamide, pH 4.7), 100 μl per well, for 4 h in the incubator. Subsequently, cell absorbance in each well is measured at 570 nm with an Ultra Microplate Reader (Bio-Tek Instruments). Results are reported as the mean±SD from 3-5 independent assays at each point. […] After 72 hours, media is removed and cells are harvested using 0.5 ml of 0.25% Trypsin-EDTA. Cells are counted and viability is analyzed on a Vi-CELL XR Cell Viability Analyzer (Beckman Coulter).
# [4] = system: ABCC4 or ABCG2 in HCT-8 colon cancer cells; assay: MTT assay of HCT-8 cells transfected with ABCC4 or ABCG2; format: cell-based, human; conditions: 72 hours
# Experimental: HCT-8 colon cancer cells are transfected with empty vector (pcDNA3.1), ABCC4 or ABCG2 expression vectors as shown. […] Cell growth/viability is then determined by MTT assay.
# [5] = system: IAP and Bcl-2 family genes; assay: Affymetrix Human Gene 1.0 ST Array of FL118-treated PC3 cells; conditions: DNA microarray
# [6] = Pharmacokinetics after IV injection in tumor-bearing SCID mice; format: in vivo
# Experimental: Then, blood and tumor tissues were collected at 10 min, 1 h, 4 h, 12 h, 24, and 48 h. Three SCID mice at each time point were used. Standard deviation (SD) was analyzed using Excel software.
# A 800 μl aliquot of ice cold acidified methanol is added to 200 μl plasma and vortexed for 15 sec. […] A 800 μl aliquot of ice cold acidified methanol is added to 200 μl homogenized tissue and then vortexed for 1 min. The samples are then centrifuged at 13,000 rpm for 5 min. and the supernatant is transferred to a clean 13×100 mm glass tube. Samples are dried under vacuum and stored at −20° C. until analysis. Dried samples were then reconstituted in 200 μl of mobile phase (80% 3% TEA and 20% acetonitrile pH 5.5) and 15 μl is injected. Analysis is carried out using an Acquity UPLC system with Fluorescence detection interfaced with Empower software. Separation is carried out on a Acquity BEH Shield RP18 1.7 μm, 2.1 mm×100 mm column (Waters). […] CPT-11 is used as the internal standard (IS); a 10 μl aliquot of a 1.3 μg/ml solution is added to each 200 μl sample. The fluorescence detector is set at the following Excitation (Ex) and Emissions (Em) wavelengths: Ex 370 nm Em 510 nm. […] To ensure quality assurance, quality control samples are prepared in plasma at 25 and 250 ng/ml aliquoted and stored at −20° C. The QC's are injected in duplicate at the beginning and end of the assay. […] Validation consists of running twelve standard curves over the course of 5 days. QC samples are analyzed with each curve.
# [7] = system: PARP cleavage; conditions: p53 null versus p53 wild type HCT116
# Experimental: Actin is used as internal controls for total protein loading.
# After the lysates are cleared by centrifugation at 15,000 g for 20 minutes at 4° C., the total protein is determined using Bio-Rad protein assay solution. Up to 50 μg of total protein is denatured in 2×SDS sample loading buffer for 5 minutes at 95° C., separated on 10-15% SDS-PAGE gels, and electrotransferred to the Pure Nitrocellulose Membrane (Bio-Rad, Hercules, Calif.) using semi-dry electrophoretic transfer. After the nonspecific binding sites on the membranes are blocked with 5% skim milk in TBS-T (20 mM Tris-HCl pH 7.5, 0.137 M NaCl, and 0.01% Tween 20) for 3 hours at room temperature with constant shaking, the membranes are incubated in TBS-T containing the relevant primary antibody (1: 500-1000) and 5% BSA overnight at 4° C. After washing with TB S-T three times, the membrane is incubated in 5% skim milk in TBS-T buffer containing the appropriate secondary anti-IgG antibody (1:5000) at room temperature for 1 h with constant shaking. The protein of interest is detected using Western Lightning®-ECL (Perkin Elmer, Waltham, Mass.) and visualized by exposure for various times (5-60 seconds). […]
# [8] = system: SW620 and HCT-8 colon cancer cells; assay: MTT assay with ABC transporter inhibitors; format: cell-based, human; conditions: sildenafil 50 μM, 3 days
# Experimental: Subconfluent SW620, HCT-8, and HCT-116 cells were lysed and analyzed for the expression of MDR1 and ABCG2 using western blots (WB). Actin is the internal control. […] Cell growth/viability was then analyzed by MTT assays. Each time point in the individual curve is the mean±SD from 3 to 5 independent assays. […] Drugs were then washed out and cells were allowed to grow in new medium without drugs for 2 weeks. Cell colonies were stained with crystal violet solution; images were digitally taken. Triplicate results are shown.
# [9] = system: HCT-8 cells; assay: Clonogenic assay, HCT-8 cells with shC or shp53; format: cell-based, human; conditions: 0.3 or 10 nM for 3 days, 14-days culture; shC versus shp53
# Experimental: HCT-8 cells are infected with either control lentivirus (shC) or lentivirus expressing shRNA against human p53 (shp53). […] Cell colonies are stained with crystal violet solution after 14-days culture. […] Colonies larger than 50 cells are counted and normalized against non-treatment control group.
# Cancer cells are infected with or without lentivirus particles expressing control shRNA or shRNA for p53 knockdown (pLKO.1) followed by selection with puromycin for one week at 5 μg/ml. […] Then the cells are cultured in an incubator at 37° C., 5% CO2 for another two weeks before fixation and staining with crystal violet solution. Colonies are defined as more than 50 cells and/or images are then digitally taken.
# [10] = system: HCT116 colon cancer cells; assay: cells; format: cell-based, human
# Experimental: as §1
# [11] = system: HCT116-G7 cells; assay: cells; format: cell-based, human
# Experimental: as §1
# [12] = system: HCT116-A2 cells; assay: cells; format: cell-based, human
# Experimental: as §1
# [13] = Cardiac measurements by ultrasound; format: in vivo, SCID mice; conditions: IV 0.75 mg/kg (½MTD), q2d×4
# Experimental: Cardiac imaging is performed using a 55 MHz ultrasound transducer system. Calculations are made based on the Simpson's method. Three short axis images and one long axis image of the left ventricle are acquired and used to determine cardiac output, ejection fraction, and stroke volume. […] Measurements are made with a 55 MHz ultrasound probe. Step (a): cardiac output is a measurement of the total volume of blood pumped by the left ventricle per minute. Step (b) ejection fraction measures the percentage of blood that leaves the left ventricle every time it contracts. Step (c) stroke volume measures the volume of blood pumped from the left ventricle with each contraction.
# On the other hand, we have analyzed a comprehensive panel of chemical parameters to determine the potential chemical toxicity including renal and liver toxicity using blood samples from vehicle-treated SCID mice and FL118-treated mice. The analyzed parameters include glucose (GLU), blood urea nitrogen (BUN), creatinine (CREA), inorganic phosphate (PHOS), calcium (CA), total protein (TP), albumin (ALB), alanine aminotransferase (ALT), alkaline phosphatase (ALKP), Gamma-glutamyl transferase (GGT), total bilirubin (TBIL), cholesterol (CHOL), and amylase (AMYL), lipase (LIPA).
# [14] = system: HCT116-NS6 cells; assay: cells; format: cell-based, human
# Experimental: as §1
# [15] = IC50 of topotecan divided by IC50 of the drug
smiles,measurement,setting,value
CC[C@@]1(O)C(=O)OCc2c1cc1n(c2=O)Cc2cc3cc4c(cc3nc2-1)OCO4 [FL118],lactone versus carboxylate form in solution,[1],fully in lactone form
same,IC50,[2]; DU-145,4.56 nM
same,"more effective than CPT, SN-38 and topotecan to inhibit cancer cell growth",[2]; parental Du145 cell line,10-40 fold
same,IC50,[3],0.0937 nM
same,RP,[3]; [15],4041
same,effect of forced expression of ABCC4 or ABCG2 on resistance,[4],fails to increase FL118 resistance
same,expression of Bcl-2 family antiapoptotic genes,[5],"slightly decreases Mcl-1 and Bcl-XL, and shows no effect on Bcl-2, Bcl2A1, Bcl-w, Bcl-B, Bcl2L12, Bcl2L13, Bcl-G and Bcl2L15"
same,expression of IAP family genes,[5],"decreases (2 fold cutoff) NAIP, cIAP2, XIAP and Bruce, and shows no effects on cIAP1, Livin and hILP2"
same,expression of proapoptotic proteins,[5],"increases proapoptotic proteins Bax, Bad, Bim, Hrk, and Bmf without affecting the expression of Bid, Bik, Bak and Bok"
same,T1/2,"[6]; FaDu tumor, iv 1.5 mg/kg",411.1 min
same,Tmax,"[6]; FaDu tumor, iv 1.5 mg/kg",10 min
same,Vz,"[6]; FaDu tumor, iv 1.5 mg/kg",33052 g/kg
same,T1/2,"[6]; SW620 tumor, iv 1.5 mg/kg",765 min
same,Tmax,"[6]; SW620 tumor, iv 1.5 mg/kg",10 min
same,Vz,"[6]; SW620 tumor, iv 1.5 mg/kg",30742 g/kg
same,time FL118 is maintained in tumor,[6]; intravenous injection,over 48 hours
same,time to clearance from blood,[6]; intravenous injection,≤ 12 h
same,Cl,"[6]; mouse plasma, iv 1.5 mg/kg",238.12 mL/min/kg
same,Cmax,"[6]; mouse plasma, iv 1.5 mg/kg",43 ng/mL
same,T1/2,"[6]; mouse plasma, iv 1.5 mg/kg",107.3 min
same,Tmax,"[6]; mouse plasma, iv 1.5 mg/kg",10 min
same,Vz,"[6]; mouse plasma, iv 1.5 mg/kg",36.849 L/kg
same,PARP cleavage,[7],more effective to induce PARP cleavage in p53 null HCT116 colon cancer cells than in p53 wild type HCT116 cells
same,sensitization by multi-efflux pump inhibitor sildenafil,[8],sildenafil does not sensitize FL118
same,clonogenic growth,[9],inhibits clonogenic growth independent of p53 status
same,IC50,[10],0.0477 nM
same,RP,[10]; [15],15.67
same,IC50,[11],1.19 nM
same,RP,[11]; [15],16.22
same,IC50,[12],0.163 nM
same,RP,[12]; [15],666.5
same,"cardiac output, ejection fraction and stroke volume",[13],no difference between vehicle control and FL118-treated SCID mice
same,IC50,[14],0.138 nM
same,RP,[14]; [15],40.87

# — US10344037B2, “Use of the FL-one hundred eighteen core chemical structure platform to generate FL-one hundred eighteen derivatives for treatment of human disease” (priority 2014, dated 2019)
